Results on 2 molecules are retold here after publication PMC3729023 (Journal of the American Chemical Society, 2012).

Series [1] concerns the target endogenous Lck (Homo sapiens, UniProt P06239). Put plainly: Competitive profiling with probe 1 in Jurkat cells: Lck. Format: cell-based. The note with it: inhibitor at 300 nM, then 1 (1 µM, 15 min).
Series [2] addresses endogenous Blk (Homo sapiens, UniProt P51451). Put plainly: Competitive profiling with probe 1 in Jurkat cells: Blk. Format: cell-based. The note with it: inhibitor at 300 nM, then 1 (1 µM, 15 min).
Series [3] deals with endogenous Fyn (Homo sapiens, UniProt P06241). Kind of series: Competitive profiling with probe 1 in Jurkat cells: Fyn. Format: cell-based. The note with it: inhibitor at 300 nM, then 1 (1 µM, 15 min).
Series [4] addresses endogenous Src (Homo sapiens, UniProt P12931). The note with it: Jurkat cells, inhibitor at 300 nM, then 1 (1 µM, 15 min).
For series [5] the following is noted: in humans; cited from earlier work.
Series [6] addresses Src. Put plainly: Src kinase assay. Format: biochemical. The note with it: read-out: IC50 (inactive up to); Src pretreated 30 min in the presence of 0.25 mM ATP prior to initiating the kinase reaction.

Chain of endogenous Fyn (P06241 1-534 isoform P06241-2): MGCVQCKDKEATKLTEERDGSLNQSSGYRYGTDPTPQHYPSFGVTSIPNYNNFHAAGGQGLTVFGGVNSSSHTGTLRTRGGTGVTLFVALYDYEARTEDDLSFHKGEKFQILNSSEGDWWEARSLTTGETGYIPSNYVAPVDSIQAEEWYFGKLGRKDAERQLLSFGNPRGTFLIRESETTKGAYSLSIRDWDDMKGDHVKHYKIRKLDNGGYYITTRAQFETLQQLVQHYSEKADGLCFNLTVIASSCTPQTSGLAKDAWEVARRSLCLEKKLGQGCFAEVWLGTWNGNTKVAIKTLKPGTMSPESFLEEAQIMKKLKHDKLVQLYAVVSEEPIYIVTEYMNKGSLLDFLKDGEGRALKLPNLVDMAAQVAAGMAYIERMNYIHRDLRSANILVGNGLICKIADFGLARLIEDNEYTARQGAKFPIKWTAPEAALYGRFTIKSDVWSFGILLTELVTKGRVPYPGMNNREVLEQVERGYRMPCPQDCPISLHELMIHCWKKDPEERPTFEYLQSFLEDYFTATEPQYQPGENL
Chain of endogenous Src (P12931 whole entry): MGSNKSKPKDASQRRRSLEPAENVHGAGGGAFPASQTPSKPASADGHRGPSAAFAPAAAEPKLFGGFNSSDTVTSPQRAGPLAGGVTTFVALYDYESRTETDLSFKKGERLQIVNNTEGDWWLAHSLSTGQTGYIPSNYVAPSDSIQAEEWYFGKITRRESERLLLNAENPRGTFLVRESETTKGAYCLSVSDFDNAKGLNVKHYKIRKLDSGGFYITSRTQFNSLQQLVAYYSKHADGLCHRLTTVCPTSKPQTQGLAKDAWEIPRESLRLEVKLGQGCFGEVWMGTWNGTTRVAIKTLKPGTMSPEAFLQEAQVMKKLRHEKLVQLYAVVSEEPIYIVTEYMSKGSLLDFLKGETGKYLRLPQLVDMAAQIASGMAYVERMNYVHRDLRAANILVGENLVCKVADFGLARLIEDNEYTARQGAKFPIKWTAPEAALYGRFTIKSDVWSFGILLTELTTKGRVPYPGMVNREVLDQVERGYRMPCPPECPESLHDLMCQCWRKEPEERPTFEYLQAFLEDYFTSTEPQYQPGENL
Chain of endogenous Blk (P51451 whole entry): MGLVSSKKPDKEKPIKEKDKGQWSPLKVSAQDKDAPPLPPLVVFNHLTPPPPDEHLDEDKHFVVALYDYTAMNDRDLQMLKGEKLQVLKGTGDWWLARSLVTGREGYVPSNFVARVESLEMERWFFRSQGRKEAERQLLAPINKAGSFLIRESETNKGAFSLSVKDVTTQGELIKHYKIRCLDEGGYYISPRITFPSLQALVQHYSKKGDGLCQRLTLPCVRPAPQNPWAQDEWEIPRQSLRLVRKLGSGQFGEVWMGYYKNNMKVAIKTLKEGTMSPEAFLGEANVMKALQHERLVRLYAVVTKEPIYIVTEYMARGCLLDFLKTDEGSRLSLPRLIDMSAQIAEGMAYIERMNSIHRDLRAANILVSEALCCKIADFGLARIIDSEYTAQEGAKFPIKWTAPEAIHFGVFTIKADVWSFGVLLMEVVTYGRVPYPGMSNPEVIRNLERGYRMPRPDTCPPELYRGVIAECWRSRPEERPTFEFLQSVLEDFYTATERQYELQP
Chain of endogenous Lck (P06239 whole entry): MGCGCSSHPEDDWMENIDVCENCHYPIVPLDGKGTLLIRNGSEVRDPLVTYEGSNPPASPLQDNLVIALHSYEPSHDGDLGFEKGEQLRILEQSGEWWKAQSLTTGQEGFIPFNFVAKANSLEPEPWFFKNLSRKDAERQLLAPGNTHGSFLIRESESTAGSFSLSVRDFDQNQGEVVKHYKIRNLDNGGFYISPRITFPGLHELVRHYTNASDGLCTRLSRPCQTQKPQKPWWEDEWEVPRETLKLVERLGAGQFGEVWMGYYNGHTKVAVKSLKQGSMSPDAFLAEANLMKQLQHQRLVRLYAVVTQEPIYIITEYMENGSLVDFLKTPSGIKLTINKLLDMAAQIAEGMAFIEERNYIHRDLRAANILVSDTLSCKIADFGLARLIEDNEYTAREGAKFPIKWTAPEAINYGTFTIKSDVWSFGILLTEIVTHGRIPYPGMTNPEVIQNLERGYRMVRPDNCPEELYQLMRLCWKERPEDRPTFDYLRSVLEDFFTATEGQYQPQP

In the case of `Cc1ccc(C(=O)Nc2ccc(CN3CCN(C)CC3)c(C(F)(F)F)c2)cc1C#Cc1cnc2cccnn12` [ponatinib], in series [1], the “labeling of endogenous Lck by 1” value is on record as “abrogated labeling”. For the same molecule, the “labeling of endogenous Blk by 1” value in series [2] was “abrogated labeling”. Further, the “labeling of endogenous Fyn by 1” value in series [3] is given as “unaffected”. The “labeling of endogenous Src by 1” value in series [4] is reported as “unaffected”. Besides, the mean steady-state concentrations in series [5] is 75 to 180 nM.

Usually IC50 stands for the concentration that gives 50% inhibition. For the molecule `Nc1ncnc2c1ncn2[C@@H]1O[C@H](COC(=O)c2ccc(S(=O)(=O)F)cc2)[C@@H](O)[C@H]1O` [FSBA, p-fluorosulfonylbenzoyl adenosine], the IC50 in series [6] is > 10 µM.
